Measured values as given in patent US6380195B1, “Method of treating heart failure with endothelin antagonists” (Banyu Pharmaceutical Co., Ltd., priority 1996, dated 2002).
Entries after “also recorded” stand apart in the source; their conditions may differ. Marks after values point to notes of the source that are not given here.

Tests used:
[1] = system: conscious pigs with heart failure; assay: Hemodynamic study in conscious pigs with heart failure (serial myocardial infarctions plus intermittent tachycardic pacing); assay type: in vivo, pig; settings: for LV End-Diastolic Diameter, change from baseline / LV End-Systolic Diameter, change from baseline / LV Fractional Shortening, change from baseline / Vcf, change from baseline: n = 3; for Cardiac Index, change from baseline / Heart Rate, change from baseline / LV dP/dt, change from baseline / Left Atrial Pressure, change from baseline / Mean Arterial Pressure, change from baseline / Total Peripheral Resistance, change from baseline: n = 4
Method: Five farm pigs of either of sex and weighing 34.5±2.5 kg were sedated with ketamine hydrochloride (25 mg/kg, i.m.) and xylazine (6 mg/kg, i.m.). After tracheal intubation, general anesthesia was maintained with isoflurane (1.5-2.0 vol % in oxygen). Using sterile surgical technique, a left thoracotomy was performed at the fifth intercostal space. Catheters made of Tygon tubing (Norton Performance Plastics Co., Akron, Ohio) were implanted in the descending aorta, left and right atria for measurement of pressures. A solid-state miniature pressure gauge (Konigsberg Instruments Inc., Pasadena, Calif.) was implanted in the left ventricular (LV) chamber to obtain LV pressure and the rate of change of LV pressure (LV dP/dt). A flow probe (Transonic System Inc., Ithaca, N.Y.) was placed around the main pulmonary artery for measurement of blood flow. One pair of piezoelectric ultrasonic dimension crystals were implanted on opposing anterior and posterior endocardial regions of the LV to measure the short-axis internal diameter. Proper alignment of the endocardial crystals was achieved during surgical implantation by positioning the crystals so as to obtain a signal with the greatest amplitude and shortest transit time. A pacing lead (model 5069, Medtronic Inc., Minneapolis, Minn.) was attached to the right ventricular free wall, and stainless steel pacing leads were attached to the left atrial appendage. The left circumflex coronary artery was isolated and two hydraulic occluders, made of Tygon tubing, were implanted proximally and distally to the first obtuse marginal branch. The wires and catheters were externalized between the scapulae, the incision was closed in layers, and air was evacuated from the chest cavity.
Hemodynamic recordings were made using a data tape recorder (RD-130TE, TEAC, Montebello, Calif.) and a multiple-channel oscillograph (MT95K2, Astro-Med, West Warwick, R.I.). Aortic and left atrial pressures were measured using strain gauge manometers (Statham Instruments, Oxnard, Calif.), which were calibrated in vitro using a mercury manometer, connected to the fluid-filled catheters. The solid-state LV pressure gauge was cross-calibrated with aortic and left atrial pressure measurements. LV dP/dt was obtained by electronically differentiating the LV pressure signal. Blood flow was measured using a volume flow meter (T208, Transonic System Inc., Ithaca, N.Y.). Mean arterial pressure, left atrial pressures, and pulmonary blood flow (cardiac output) were measured using an amplifier filter. Stroke volume was calculated as the quotient of cardiac output and heart rate. Cardiac output was normalized by body weight to yield cardiac index. LV dimension was measured with an ultrasonic transit-time dimension gauge (Model 203, Triton Technology Inc., San Diego, Calif.). Total peripheral resistance was calculated as the quotient of mean arterial pressure and cardiac output. LV short-axis end-diastolic dimension (EDD) was measured at the beginning of the upstroke of the LV dP/dt signal. LV end-systolic dimension (ESD) was measured at the time of maximum negative dP/dt. The percent shortening of LV internal diameter was calculated as (EDD-ESD)/EDD*100. LV mean velocity of circumferential fiber shortening (Vcf) was calculated from the dimension measurements using the following formula:(EDD-ESD)/EDD/Ejection time (sec^−1). Ejection time was measured as the interval between maximum and minimum LV dP/dt. A cardiotachometer triggered by the LV pressure pulse provided instantaneous and continuous records of heart rate.
Experiments were initiated 10-14 days after surgery, when the pigs were fully recovered from surgery. During the post-operative period, the pigs were introduced to a sling for training. Heart failure was produced by progressive myocardial ischemia induced by two coronary artery occlusions followed by intermittent ventricular pacing.

[2] = system: ET receptor; assay: Endothelin-1 (ET-1) challenge before and after Compound 1 in conscious pigs with heart failure; assay type: in vivo, pig
Method: Hemodynamic experiments were performed after 2 cycles of tachycardic pacing in the presence of myocardial ischemia injury, after the animal had achieved a stable state of heart failure. During the experiments, the pigs were conscious and quietly restrained in a sling. The test compound is dissolved in saturated NaHCO3 (10% by Vol) and 0.9% saline (90% by Vol) at a concentration of 2 mg/ml, was studied in four conscious pigs with heart failure. A dose of 0.5 mg/kg was injected intravenously over a period of 2 minutes, and hemodynamics were continuously recorded before and 90 minutes following injection of the test compound in all 4 pigs. In two of these pigs, recording continued until 3 hours following injection of the test compound. The vehicle was tested on separate days. The effects of 0.1 to 0.5 μg/kg cumulative bolus doses in 0.1 μg/kg steps of endothelin-1 (Peptide Institute, Inc., Osaka, Japan) were also examined on separate days before and 90 minutes after injection of the test compound in three pigs during development of heart failure to characterize the extent of endothelin block by the test compound. ET-1 was dissolved in 0.1 N NaHCO3 ([…]) and 0.9% saline (95% by Vol) at a concentration of 20 μg/ml.
Hemodynamic experiments were performed after 2 cycles of tachycardic pacing in the presence of myocardial ischemia injury, after the animal had achieved a stable state of heart failure. During the experiments, the pigs were conscious and quietly restrained in a sling. Compound 1, dissolved in saturated NaHCO3 (10% by Vol) and 0.9% saline (90% by Vol) at a concentration of 2 mg/ml, was studied in four conscious pigs with heart failure. A dose of 0.5 mg/kg was injected intravenously over a period of 2 minutes, and hemodynamics were continuously recorded before and 90 minutes following injection of Compound 1 in all 4 pigs. In two of these pigs, recording continued until 3 hour following injection of Compound 1. The vehicle was tested on separate days. The effects of 0.1 to 0.5 μg/kg cumulative bolus doses in 0.1 μg/kg steps of endothelin-1 (Peptide Institute, Inc., Osaka, Japan) were also examined on separate days before and 90 minutes after injection of Compound 1 in three pigs during development of heart failure to characterize the extent of ET block by Compound 1. ET-1was dissolved in 0.1 N NaHCO3 ([…]) and 0.9% saline (95% by Vol) at a concentration of 20 μg/ml. For comparative purpose, the effects of intravenous injection of Compound 2 (enalaprilat), at doses of 1 mg/kg and 4 mg/kg, were studied on different days in three of the pigs that were used to study […] and in one additional pig. Compound 2 was dissolved in 0.9% saline.

[3] = 0.5 mg/kg i.v., 60 minutes after administration
[4] = Compound 1 0.5 mg/kg i.v., 15 min
[5] = Compound 1 0.5 mg/kg i.v., 60 min
[6] = ET-1 cumulative i.v. bolus 0.1 to 0.5 μg/kg, without Compound 1

Q: How did the “Vcf, increase” value ([1]; 0.5 mg/kg i.v.) turn out when `CCCCc1ccc2c(n1)[C@@H](c1ccc(OC)cc1CC(C)C(=O)O)[C@H](C(=O)O)[C@H]2c1ccc2c(c1)OCO2` (relative stereo) [Compound 1, (+)-(5S*, 6R*, 7R*)-2-butyl-6-carboxy-7-[2-(2-carboxypropyl)-4-methoxyphenyl]-5-(3,4-methylenedioxyphenyl)cyclopenteno[1,2-b]pyridine] was run?
A: 12±2%

Q: What about the “effect on LV dP/dt (in words)” value ([1]; 0.5 mg/kg i.v.) of the same molecule?
A: not affected

Q: What about the “effect on LV end-diastolic diameter (in words)” value ([1]; 0.5 mg/kg i.v.) of the same molecule?
A: not affected

Q: And the “effect on LV fraction shortening (in words)” value ([1]; 0.5 mg/kg i.v.)?
A: not affected

Q: What about the “effect on LV systolic diameter (in words)” value ([1]; 0.5 mg/kg i.v.) of the same molecule?
A: not affected

Q: What about the “effect on elevated vascular resistance of heart failure (in words)” value ([1]; 0.5 mg/kg i.v.) of the same molecule?
A: complete restoration of the elevated vascular resistance of heart failure back to pre-heart failure control values; also recorded: reduced the elevated vascular resistance

Q: And the “effect on myocardial contractility (in words)” value ([1]; 0.5 mg/kg i.v.)?
A: did not affect myocardial contractility

Q: What about the “heart rate, increase (in words)” value ([1]; 0.5 mg/kg i.v.) of the same molecule?
A: not statistically significant

Q: And the “left atrial pressure, decrease (in words)” value ([1]; 0.5 mg/kg i.v.)?
A: not statistically significant

Q: And the “cardiac index, increase” value [1, 3]?
A: 17±4%

Q: And the “mean arterial pressure, decrease” value [1, 3]?
A: 10±2%

Q: And the “total peripheral resistance, decrease” value [1, 3]?
A: 22±3%

Q: And the “reduction in total peripheral resistance compared with Compound 2 (1 mg/kg or 4 mg/kg i.v.)” value ([1]; Compound 1 0.5 mg/kg i.v.)?
A: greater than that induced by either dose of Compound 2

Q: What about the “LV End-Diastolic Diameter, change from baseline” value [1, 4] of the same molecule?
A: +0.1 ± 0.2 mm

Q: What about the “LV End-Systolic Diameter, change from baseline” value [1, 4] of the same molecule?
A: −0.3 ± 0.3 mm

Q: And the “LV Fractional Shortening, change from baseline” value [1, 4]?
A: +0.6 ± 0.2%

Q: And the “Vcf, change from baseline” value [1, 4]?
A: 0.05 ± 0.01* sec^−1

Q: What about the “Cardiac Index, change from baseline” value [1, 4] of the same molecule?
A: +14 ± 2 ml/min/kg

Q: What about the “Heart Rate, change from baseline” value [1, 4] of the same molecule?
A: +5 ± 5 beat/min

Q: What about the “LV dP/dt, change from baseline” value [1, 4] of the same molecule?
A: +25 ± 40 mmHg/sec

Q: What about the “Left Atrial Pressure, change from baseline” value [1, 4] of the same molecule?
A: −4 ± 2 mmHg

Q: And the “Mean Arterial Pressure, change from baseline” value [1, 4]?
A: −10 ± 1 mmHg

Q: And the “Total Peripheral Resistance, change from baseline” value [1, 4]?
A: −0.25 ± 0.03 mmHg/ml/min/kg

Q: And the “LV End-Diastolic Diameter, change from baseline” value [1, 5]?
A: +0.2 ± 0.3 mm

Q: And the “LV End-Systolic Diameter, change from baseline” value [1, 5]?
A: −0.2 ± 0.3 mm

Q: What about the “LV Fractional Shortening, change from baseline” value [1, 5] of the same molecule?
A: +0.7 ± 0.2%

Q: What about the “Vcf, change from baseline” value [1, 5] of the same molecule?
A: +0.07 ± 0.02* sec^−1

Q: And the “Cardiac Index, change from baseline” value [1, 5]?
A: +13 ± 2 ml/min/kg

Q: What about the “Heart Rate, change from baseline” value [1, 5] of the same molecule?
A: +7 ± 5 beat/min

Q: What about the “LV dP/dt, change from baseline” value [1, 5] of the same molecule?
A: 56 ± 65 mmHg/sec

Q: What about the “Left Atrial Pressure, change from baseline” value [1, 5] of the same molecule?
A: −2 ± 2 mmHg

Q: And the “Mean Arterial Pressure, change from baseline” value [1, 5]?
A: −8 ± 1 mmHg

Q: And the “Total Peripheral Resistance, change from baseline” value [1, 5]?
A: −0.24 ± 0.05 mmHg/ml/min/kg

Q: What about the “hemodynamic responses to ET-1 after administration of the antagonist” value ([2]; Compound 1 0.5 mg/kg i.v., ET-1 cumulative i.v. bolus, total dose 0.5 μg/kg) of the same molecule?
A: markedly attenuated

Q: With `C[C@H](N[C@@H](CCc1ccccc1)C(=O)O)C(=O)N1CCC[C@H]1C(=O)O` [Compound 2, enalaprilat, reference compound] as the molecule, how does the “effect on total peripheral resistance (in words)” value ([1]; 1 mg/kg or 4 mg/kg i.v., throughout 90-minute observation period, not dose-dependent) read?
A: significantly reduce the total peripheral resistance

Q: How did the “effect of ET-1 on heart rate” value [2, 6] turn out when `CC[C@H](C)[C@H](NC(=O)[C@H](CC(=O)O)NC(=O)[C@H](CC(C)C)NC(=O)[C@H](Cc1c[nH]cn1)NC(=O)[C@@H]1CSSC[C@H](N)C(=O)N[C@@H](CO)C(=O)N[C@H]2CSSC[C@H](NC(=O)[C@H](CCC(=O)O)NC(=O)[C@H](CCCCN)NC(=O)[C@H](CC(=O)O)NC(=O)[C@H](CCSC)NC(=O)[C@H](CC(C)C)NC(=O)[C@H](CO)NC(=O)[C@H](CO)NC2=O)C(=O)N[C@@H](C(C)C)C(=O)N[C@@H](Cc2ccc(O)cc2)C(=O)N[C@@H](Cc2ccccc2)C(=O)N1)C(=O)N[C@H](C(=O)N[C@@H](Cc1c[nH]c2ccccc12)C(=O)O)[C@@H](C)CC` [ET-1, endothelin-1] was run?
A: decreased, but not dose-dependently

Q: And the “effect of ET-1 on mean arterial pressure” value [2, 6]?
A: significant dose-dependent increases

Q: What about the “effect of ET-1 on mean left atrial pressure” value [2, 6] of the same molecule?
A: significant dose-dependent increases

Q: And the “effect of ET-1 on total peripheral resistance” value [2, 6]?
A: significant dose-dependent increases
